The text below walks through data of patent US20170334899A1, “AMINO-SUBSTITUTED ISOTHIAZOLES” (Bayer Pharma Aktiengesellschaft, priority 2014, published 2017).

Type in all cases: cell-based
One assay has as its system HeLa. Nature of the assay: Proliferation assay (crystal violet), HeLa. The conditions noted are these: Homo sapiens, HeLa, 96 h, HeLa cells; 4 days incubation; crystal violet staining; read-out: IC50 inhibition of proliferation, HeLa. The procedure: Cultivated tumor cells (cells were ordered from ATCC, except HeLa-MaTu and HeLa-MaTu-ADR, which were ordered from EPO-GmbH, Berlin) were plated at a density of 1000 to 5000 cells/well, depending on the growth rate of the respective cell line, in a 96-well multititer plate in 200 μL of their respective growth medium supplemented 10% fetal calf serum. After 24 hours, the cells of one plate (zero-point plate) were stained with crystal violet (see below), while the medium of the other plates was replaced by fresh culture medium (200 μl), to which the test substances were added in various concentrations (0 μM, as well as in the range of 0.001-10 μM; the final concentration of the solvent dimethyl sulfoxide was 0.5%). The cells were incubated for 4 days in the presence of test substances. Cell proliferation was determined by staining the cells with crystal violet: the cells were fixed by adding 20 μl/measuring point of an 11% glutaric aldehyde solution for 15 minutes at room temperature. After three washing cycles of the fixed cells with water, the plates were dried at room temperature. The cells were stained by adding 100 μl/measuring point of a 0.1% crystal violet solution (pH 3.0). After three washing cycles of the stained cells with water, the plates were dried at room temperature. The dye was dissolved by adding 100 μl/measuring point of a 10% acetic acid solution. Absorbtion was determined by photometry at a wavelength of 595 nm. The change of cell number, in percent, was calculated by normalization of the measured values to the aborbtion values of the zero-point plate (=0%) and the absorbtion of the untreated (0 μm) cells (=100%). The IC50 values were determined by means of a 4 parameter fit.

Assay [1] deals with human cervical tumor cell line HeLa (ATCC CCL-2). Nature of the assay: SAC-Formation - Nocodazole-Induced Assay. The conditions noted are these: Homo sapiens, HeLa, 24 h, HeLa cells, nocodazole 0.1 μg/ml together with test compound, decrease of mitotic cells (phospho-histone H3 Ser10). The text has this: (§1) The spindle assembly checkpoint assures the proper segregation of chromosomes during mitosis. Upon entry into mitosis, chromosomes begin to condensate which is accompanied by the phosphorylation of histone H3 on serine 10. Dephosphorylation of histone H3 on serine 10 begins in anaphase and ends at early telophase. Accordingly, phosphorylation of histone H3 on serine 10 can be utilized as a marker of cells in mitosis. Nocodazole is a microtubule destabilizing substance. Paclitaxel is a microtubule stabilizing compound. Thus, nocodazole as well as paclitaxel interfere with microtubule dynamics and mobilize the spindle assembly checkpoint. […] The mitotic breakthrough can be detected by the decrease of cells with phosphorylation of histone H3 on serine 10. This decline is used as a marker to determine the capability of compounds of the present invention to induce a mitotic breakthrough. The typical morphological alteration of nuclei with a prematurely completed mitosis after SAC-inhibition can be monitored via image analysis routines supporting those findings.
(§2) The nocodazole and paclitaxel variations were used to focus on compounds that are capable of inhibiting a SAC induced by both microtubule destabilization as well as microtubule stabilization. When SAC inducing agents and compounds are given simultaneously inhibitors that effectively block the SAC during formation or abrogation are identified. When cells are incubated with a SAC inducing agent and the SAC interfering compound is given after a defined time, inhibitors are identified that effectively block SAC abrogation.
(§3) Cultivated cells of the human cervical tumor cell line HeLa (ATCC CCL-2) were plated at a density of 1000 cells/well in a 1536-well microtiter plate in 2 μl PAA Ham's F12 Medium supplemented with 1% (v/v) glutamine, 1% (v/v) penicillin, 1% (v/v) streptomycin and 10% (v/v) fetal calf serum. After incubation overnight at 37° C., 10 μl/well nocodazole at a final concentration of 0.1 μg/ml were added to cells. Test compounds solubilized in dimethyl sulfoxide (DMSO) were added at various concentrations (0 μM, as well as in the range of 0.005 μM-20 μM; the final concentration of the solvent DMSO was 0.5% (v/v)). Cells were incubated for 24 h at 37° C. in the presence of test compounds in combination with nocodazole. Thereafter, cells were fixed in 4% (v/v) paraformaldehyde in phosphate buffered saline (PBS) at 4° C. overnight then permeabilized in 0.1% (v/v) Triton X™ 100 in PBS at room temperature for 20 min and blocked in 0.5% (v/v) bovine serum albumin (BSA) in PBS at room temperature for 15 min. After washing with PBS, 5 μl/well antibody solution (anti-phospho-histone H3 clone 3H10, FITC; Millipore, Cat#16-222; 1:1000 dilution) was added to cells, which were incubated for 2 h at room temperature. Afterwards, cells were washed with PBS and 5 μl/well solution of HOECHST 33342 dye (5 μg/ml) was added to cells and cells were incubated 15 min at room temperature in the dark. Cells were washed twice with PBS then covered with PBS and stored at 4° C. until analysis. Images were acquired with a PERKIN ELMER OPERA™ High-Content Analysis reader. Images were analyzed with image analysis software MetaXpress™ from Molecular devices utilizing the Mitotic Index application module. In this assay both labels HOECHST 33342 and phosphorylated Histone H3 on serine 10 were measured. HOECHST 33342 labels the DNA and is used to count the cell number. The staining of phosphorylated Histone H3 on serine 10 determines the number of mitotic cells. […] Otherwise cells were arrested at G2/M phase of the cell cycle progression. The raw assay data were further analyzed by four-parametric hill equation using Genedata's Assay Analyzer and Condoseo software.

For assay [2] the test system is unchanged. Nature of the assay: SAC-Formation - Paclitaxel-Induced Assay. Particulars: Homo sapiens, HeLa, 24 h, HeLa cells, paclitaxel 0.05 μM, test range 0.005 μM-20 μM, read-out: IC50 [mol/l] SAC-Formation - Paclitaxel-Induced Assay.
From the text: as §1, §2
Cultivated cells of the human cervical tumor cell line HeLa (ATCC CCL-2) were plated at a density of 1000 cells/well in a 1536-well microtiter plate in 2 μl PAA
as §3, with “Ham's” for “Cultivated cells of the human cervical tumor cell line HeLa (ATCC CCL-2) were plated at a density of 1000 cells/well in a 1536-well microtiter plate in 2 μl PAA Ham's”, “paclitaxel” for “nocodazole”, “0.05 μM” for “0.1 μg/ml”, “μM -20” for “μM-20”, “paclitaxel.” for “nocodazole.”

For `Cc1nsc(Nc2cnc3ccccc3n2)c1C(=O)Nc1cccc(C(=O)N2CCN(c3ccccc3C#N)CC2)c1` [Example 80, N-(3-{[4-(2-Cyanophenyl)piperazin-1-yl]carbonyl}phenyl)-3-methyl-5-(quinoxalin-2-ylamino)-1,2-thiazole-4-carboxamide], the IC50 came to 8.3 µM with HeLa, 1.8 µM in assay [1] and 3.5 µM in assay [2].

Consider `COc1cc(CNC(=O)c2cccc(NC(=O)c3c(C)nsc3Nc3cnc4ccccc4n3)c2)cc(OC)c1OC` [Example 69, 3-Methyl-5-(quinoxalin-2-ylamino)-N-{3-[(3,4,5-trimethoxy-benzyl)carbamoyl]phenyl}-1,2-thiazole-4-carboxamide], for which the IC50 in the assay on HeLa is 4 µM; in assay [1] it was 0.87 µM; in assay [2] it was 2.6 µM.

For `CC(=O)N1CCN(C(=O)c2cccc(NC(=O)c3c(C)nsc3Nc3cnc4ccccc4n3)c2)CC1` [Example 70, N-{3-[(4-Acetylpiperazin-1-yl)carbonyl]phenyl}-3-methyl-5-(quinoxalin-2-ylamino)-1,2-thiazole-4-carboxamide], the IC50 in the assay on HeLa stood at 10 µM; in assay [1], 2.2 µM; in assay [2], 10 µM.

In the case of `Cc1nsc(Nc2cnc3ccccc3n2)c1C(=O)Nc1cccc(C(=O)NCCCN2CCCC2)c1` [Example 81, 3-Methyl-N-(3-{[3-(pyrrolidin-1-yl)propyl]carbamoyl}-phenyl)-5-(quinoxalin-2-ylamino)-1,2-thiazole-4-carboxamide], the results for the IC50 (in the assay with HeLa; in assay [1]; in assay [2]) were 10 µM, 10 µM and 11 µM, respectively.

As to `COc1cc(NC(=O)c2cccc(NC(=O)c3c(C)nsc3Nc3cnc4ccccc4n3)c2)cc(OC)c1OC` [Example 77, 3-Methyl-5-(quinoxalin-2-ylamino)-N-{3-[(3,4,5-trimethoxy-phenyl)carbamoyl]phenyl}-1,2-thiazole-4-carboxamide], the IC50 in the assay with HeLa is 10 µM; in assay [1] it was 2.2 µM; in assay [2], 10 µM.

`Cc1nsc(Nc2cnc3ccccc3n2)c1C(=O)Nc1cccc(C(=O)N2CCN(CCc3ccccn3)CC2)c1` [Example 94, 3-Methyl-N-[3-({4-[2-(pyridin-2-yl)ethyl]piperazin-1-yl}-carbonyl)phenyl]-5-(quinoxalin-2-ylamino)-1,2-thiazole-4-carboxamide]: the results for the IC50 (in the assay on HeLa; in assay [1]; in assay [2]) were 10 µM, 0.94 µM and 8.4 µM, respectively.

For the compound `Cc1nsc(Nc2cnc3ccccc3n2)c1C(=O)Nc1cccc(C(=O)Nc2ccc3c(c2)OCO3)c1` [Example 63, N-[3-(1,3-Benzodioxol-5-ylcarbamoyl)phenyl]-3-methyl-5-(quinoxalin-2-ylamino)-1,2-thiazole-4-carboxamide], the IC50 stood at 3.6 µM with HeLa, 0.19 µM in assay [1] and 0.44 µM in assay [2].

As for `CC(=O)Nc1ccccc1NC(=O)c1cccc(NC(=O)c2c(C)nsc2Nc2cnc3ccccc3n2)c1` [Example 84, N-(3-{[2-(Acetylamino)phenyl]carbamoyl}phenyl)-3-methyl-5-(quinoxalin-2-ylamino)-1,2-thiazole-4-carboxamide], the IC50 in the assay with HeLa came to 10 µM; in assay [1] it was 0.096 µM; in assay [2], 8.4 µM.

For `Cc1nsc(Nc2cnc3ccccc3n2)c1C(=O)Nc1cccc(C(=O)N2CCN(c3cccc(F)c3)CC2)c1` [Example 87, N-(3-{[4-(3-Fluorophenyl)piperazin-1-yl]carbonyl}phenyl)-3-methyl-5-(quinoxalin-2-ylamino)-1,2-thiazole-4-carboxamide], the results for the IC50 (with HeLa; in assay [1]; in assay [2]) were 4.5 µM, 0.39 µM and 1.5 µM, respectively.

`Cc1nsc(Nc2cnc3ccccc3n2)c1C(=O)Nc1cccc(C(=O)NCCCN2CCCC2=O)c1` [Example 60, 3-Methyl-N-(3-{[3-(2-oxopyrrolidin-1-yl)propyl]carbamoyl}phenyl)-5-(quinoxalin-2-ylamino)-1,2-thiazole-4-carboxamide]: the results for the IC50 (in the assay with HeLa; in assay [1]; in assay [2]) were 10 µM, 0.31 µM and 0.24 µM, respectively.

Take `Cc1nsc(Nc2cnc3ccccc3n2)c1C(=O)Nc1cccc(C(=O)N2CCN(Cc3ccc(F)cc3)CC2)c1` [Example 93, N-(3-{[4-(4-Fluorobenzyl)piperazin-1-yl]carbonyl}phenyl)-3-methyl-5-(quinoxalin-2-ylamino)-1,2-thiazole-4-carboxamide]: the IC50 stood at 9.9 µM in the assay with HeLa, 0.71 µM in assay [1] and 2.7 µM in assay [2].

`Cc1nsc(Nc2cnc3ccccc3n2)c1C(=O)Nc1cccc(C(=O)N2CCN(CCN(C)C)CC2)c1` [Example 90, N-[3-({4-[2-(Dimethylamino)ethyl]piperazin-1-yl}carbonyl)-phenyl]-3-methyl-5-(quinoxalin-2-ylamino)-1,2-thiazole-4-carboxamide]: the IC50 was 10 µM with HeLa, 0.79 µM in assay [1] and 17 µM in assay [2].
